These results are taken from patent US20050152857A1, “Method and preparation for reducing sunburn cell formation in skin” (PCR Technology Holdings, LC, priority 2004, published 2005).

Series [1] has as its system sensitivity of skin to UV light. To be noted: cited from earlier work.
In series [2] the test system is sunburn cells in human skin. The series is described as follows: 2-week human sun burn cell assay study with glycolic acid compositions (Formulas 4-5, 1.5 MED solar simulator). It is filed as in vivo. Particulars: compared with normal, untreated skin, UV-exposed. From the text: The idebenone-containing Formula 4 and the placebo Formula 5 of Example 3 were applied to human skin in a 2-week human sun burn cell assay study.
The panel composition was six different healthy adult volunteers between the ages of 18 and 53. All were in excellent health, and without any significant internal or dermatological diseases. The subjects were carefully screened to insure they were not taking any medications.
The subjects were given detailed instructions to avoid any direct exposure to sunlight and to minimize any incidental exposure to their backs for the entire duration of the study. […]
The light source used was a 150 watt xenon arc solar simulator equipped with a UV reflecting diachronic mirror and a 1 mm thick Schott WG-320 filter to produce simulation of the solar spectrum. […] Total irradiance at skin level was measured with a calibrated Eppley Thermopile and the UVB component was monitored with a UVB radiometer (International Light Inc, Newburyport, Mass.). […]
Two days prior to the end of the study, the MED (minimal erythema dose) for each subject was determined by exposing several normal untreated skin sites over the midback area to a series of exposures in 25% dose increments from the solar simulator. […] The MED was recorded in the appropriate case record form. […]

As to `O=C(O)CO` [glycolic acid], the “sensitivity of skin to UV light, sunburn cell induction” value in series [1] (10% glycolic acid (pH 3.5) once daily, 6 days per week, 4 weeks, 1.5 MED, 29 Caucasian subjects) is “enhanced sensitivity to UV light, including increased sunburn cell induction”. Moreover, the “duration of photosensitivity after terminating treatments” value in series [1] (10% glycolic acid (pH 3.5), after 4 weeks of treatment) is on record as “reversed within a week of terminating treatments”.

`COC1=C(OC)C(=O)C(CCCCCCCCCCO)=C(C)C1=O` [idebenone, 6-(10-hydroxydecyl)-2,3-dimethoxy-5-methyl-1,4-benzoquinone]: the “prevention of the increase in sun sensitivity / sunburn cell formation produced by 10 wt. % glycolic acid” value in series [2] is on record as “prevented the increase in formation of sunburn cells”.
